The values below come from patent publication US4319028A, “7-(2-(Substituted benzoyl)amino)acetamido)cephalosporins” (Eli Lilly and Company, priority 1976, dated 1982).

As usually defined, the pKa is the negative logarithm of the acid dissociation constant.

One data set can be described thus: Titration (pKa). In kind it is physicochemical. The conditions noted are these: 66% dmf-34% h2o, titration (66% DMF-34% H2O).
For data set [1], the system named is V84 (penicillin resistant Staphylococcus). In words: Antibiotic activity (MIC), Gradient Plate in vitro method, V84. Format: cell-based. The conditions noted are these: read-out: Minimum Inhibitory Concentration. An excerpt: (§1) The antibiotic activity of the cephalosporin compounds of the present invention is illustrated by the data presented in Table I for representative compounds. The values in the table are the minimum inhibitory concentrations (MIC) for the test compounds against the indicated microorganisms. The MIC values were obtained in the Gradient Plate in vitro method for determining antibiotic activity.
(§2) ^1 Test organisms V41, V32, and V84 are penicillin resistant

Another data set relates to Salmonella heidelberg. In words: Antibiotic activity (MIC), Gradient Plate in vitro method, Salmonella heidelberg. In kind it is cell-based. The conditions noted are these: Salmonella enterica, read-out: Minimum Inhibitory Concentration. An excerpt: (§3) The values in the table are the minimum inhibitory concentrations (MIC) for the test compounds against the indicated microorganisms. The MIC values were obtained in the Gradient Plate in vitro method for determining antibiotic activity.

In data set [2] the test system is X466 (methicillin resistant Staphylococcus). Briefly: Antibiotic activity (MIC), Gradient Plate in vitro method, X466. In kind it is cell-based. The conditions noted are these: read-out: Minimum Inhibitory Concentration. An excerpt: The antibiotic activity of the cephalosporin compounds of the present invention is illustrated by the data presented in Table I for representative compounds. The values in the table are the minimum inhibitory concentrations (MIC) for the test compounds against the indicated microorganisms. The MIC values were obtained in the Gradient Plate in vitro method for determining antibiotic activity. […]

A further data set deals with Aerobacter Aerogenes. Briefly: Antibiotic activity (MIC), Gradient Plate in vitro method, Aerobacter Aerogenes. In kind it is cell-based. The conditions noted are these: Klebsiella aerogenes, read-out: Minimum Inhibitory Concentration.
Excerpt: as §3

In the next data set the test system is Shigella sp. In words: Antibiotic activity (MIC), Gradient Plate in vitro method, Shigella sp. In kind it is cell-based. The conditions noted are these: read-out: Minimum Inhibitory Concentration.
Excerpt: as §1

In the next data set the test system is Pseudomonas Aeruginosa. In words: Antibiotic activity (MIC), Gradient Plate in vitro method, Pseudomonas Aeruginosa. Format: cell-based. The conditions noted are these: read-out: Minimum Inhibitory Concentration.
Excerpt: as §3

A further data set concerns Escherichia coli. In words: Antibiotic activity (MIC), Gradient Plate in vitro method, Escherichia coli. In kind it is cell-based. The conditions noted are these: read-out: Minimum Inhibitory Concentration.
Excerpt: as §3

Data set [3] relates to V32 (penicillin resistant Staphylococcus). Briefly: Antibiotic activity (MIC), Gradient Plate in vitro method, V32. Format: cell-based. The conditions noted are these: read-out: Minimum Inhibitory Concentration.
Excerpt: as §1, §2

In another data set the test system is Klebsiella pneumoniae. In words: Antibiotic activity (MIC), Gradient Plate in vitro method, Klebsiella pneumoniae. The conditions noted are these: read-out: Minimum Inhibitory Concentration. Format: cell-based.
Excerpt: as §3

The test system of data set [4] is V41 (penicillin resistant Staphylococcus). In words: Antibiotic activity (MIC), Gradient Plate in vitro method, V41. In kind it is cell-based. The conditions noted are these: read-out: Minimum Inhibitory Concentration.
Excerpt: as §1, §2

Another data set concerns Serratia marcescens. In words: Antibiotic activity (MIC), Gradient Plate in vitro method, Serratia marcescens. In kind it is cell-based. The conditions noted are these: read-out: Minimum Inhibitory Concentration.
Excerpt: as §1

Where [5] appears, read: first pKa, read-out: pKa (first value).
Setting [6] is: second pKa, read-out: pKa (second value).
Setting [7] is: Gradient Plate in vitro, V32, penicillin resistant Staphylococcus.
Where [8] appears, read: third pKa, read-out: pKa (third value).
Setting [9] is: Gradient Plate in vitro, V84, penicillin resistant Staphylococcus.
[10] abbreviates: Gradient Plate in vitro, V41, penicillin resistant Staphylococcus.

The structures appear in SMILES notation. In brackets after ≈: the same amount, converted by molar mass. Read-outs that look alike come from different tables or passages of the source.

Turning to `Cc1nnc(SCC2=C(C(=O)O)N3C(=O)C(NC(=O)[C@H](NC(=O)c4cccc(O)c4)c4ccc(O)cc4)C3SC2)s1` (stereo partly drawn) [Example 10, 7-[D-[2-(4-Hydroxyphenyl)-2-[(3-hydroxybenzoyl)amino]-acetyl]amino]-3-[[(5-methyl-1,3,4-thiadiazol-2-yl)thio]-methyl]-3-cephem-4-carboxylic acid], the pKa in “Titration (pKa)” (setting [5]) is 5.02; in “Titration (pKa)” (setting [6]), 11.9. Moreover, the MIC was 1 µg/mL (≈ 1.63 µM) in [1] (Staphylococcus); 26 µg/mL (≈ 42.4 µM) in the data set with Salmonella heidelberg; 92 µg/mL (≈ 150 µM) in data set [2]; 65.5 µg/mL (≈ 107 µM) in the data set on Aerobacter Aerogenes; 10.4 µg/mL (≈ 16.9 µM) in the data set on Shigella sp.; > 200 µg/mL with Pseudomonas Aeruginosa. Besides, the MIC was 28.8 µg/mL (≈ 46.9 µM) in the data set on Escherichia coli; 1 µg/mL (≈ 1.63 µM) in [3] (Staphylococcus); 16.8 µg/mL (≈ 27.4 µM) in the data set with Klebsiella pneumoniae; 1 µg/mL (≈ 1.63 µM) in data set [4] (Staphylococcus); > 200 µg/mL in the data set with Serratia marcescens.
`Cc1nnc(SCC2=C(C(=O)O)N3C(=O)C(NC(=O)[C@H](NC(=O)c4ccc(O)c(Cl)c4)c4ccc(O)cc4)C3SC2)s1` (stereo partly drawn) [Example 11, 7-[D-[2-(4-Hydroxyphenyl)-2-[(3-chloro-4-hydroxybenzoyl)-amino]acetyl]amino]-3-[[(5-methyl-1,3,4-thiadiazol-2-yl)-thio]methyl]-3-cephem-4-carboxylic acid]: the pKa was found to be 4.9 in the data set “Titration (pKa)” (setting [5]) and 9.5 in “Titration (pKa)” (setting [6]). The MIC in data set [1] (Staphylococcus) is 1 µg/mL (≈ 1.54 µM); in the data set on Salmonella heidelberg, 25 µg/mL (≈ 38.6 µM); in data set [2] it was 122 µg/mL (≈ 188 µM); in the data set with Aerobacter Aerogenes it was 36.8 µg/mL (≈ 56.8 µM); with Shigella sp., 9.6 µg/mL (≈ 14.8 µM); with Pseudomonas Aeruginosa it was 124 µg/mL (≈ 191 µM). Besides, the MIC in the data set on Escherichia coli was found to be 11.2 µg/mL (≈ 17.3 µM); in [3] (setting [7]), 1.1 µg/mL (≈ 1.7 µM); in the data set with Klebsiella pneumoniae it was 8.9 µg/mL (≈ 13.7 µM); in data set [4] (Staphylococcus), 1 µg/mL (≈ 1.54 µM); in the data set with Serratia marcescens, 80 µg/mL (≈ 123 µM).
With `Cc1nnc(SCC2=C(C(=O)O)N3C(=O)C(NC(=O)[C@H](NC(=O)c4cc(O)c(O)c(O)c4O)c4ccc(O)cc4)C3SC2)s1` (stereo partly drawn) [Example 14, 7-[D-[2-(4-Hydroxyphenyl)-2-[(2,3,4,5-tetrahydroxybenzoyl)amino]acetyl]amino]-3-[[(1-methyl-1,3,4-thiadiazol-2-yl)thio]methyl]-3-cephem-4-carboxylic acid], the pKa in the data set “Titration (pKa)” (setting [5]) was 4.98; in the data set “Titration (pKa)” (setting [6]), 7.63; in the data set “Titration (pKa)” (setting [8]), 9.69. For the same molecule, the MIC in [1] (setting [9]) is 6.2 µg/mL (≈ 9.37 µM); with Salmonella heidelberg, 3 µg/mL (≈ 4.53 µM); in data set [2], 134 µg/mL (≈ 203 µM); in the data set on Aerobacter Aerogenes, 9.1 µg/mL (≈ 13.8 µM); in the data set on Shigella sp., 5.7 µg/mL (≈ 8.61 µM); in the data set with Pseudomonas Aeruginosa, 92 µg/mL (≈ 139 µM). Moreover, the MIC was 10.1 µg/mL (≈ 15.3 µM) with Escherichia coli; 7.1 µg/mL (≈ 10.7 µM) in data set [3] (setting [7]); 5 µg/mL (≈ 7.56 µM) in the data set with Klebsiella pneumoniae; 7.2 µg/mL (≈ 10.9 µM) in data set [4] (setting [10]); > 200 µg/mL in the data set on Serratia marcescens.
In the case of `Cn1nnnc1SCC1=C(C(=O)O)N2C(=O)C(NC(=O)[C@H](NC(=O)c3cc(O)ccc3O)c3ccc(O)cc3)C2SC1` (stereo partly drawn) [Example 15, 7-[D-[2-(4-Hydroxyphenyl)-2-[(2,5-dihydroxybenzoyl)-amino]acetyl]amino]-3-[[(1-methyltetrazol-5-yl)thio]-methyl]-3-cephem-4-carboxylic acid], the pKa in “Titration (pKa)” (setting [5]) worked out at 5.08; in “Titration (pKa)” (setting [6]), 11; in the data set “Titration (pKa)” (setting [8]), 12.5. The MIC in [1] (setting [9]) is 10 µg/mL (≈ 16.3 µM); with Salmonella heidelberg, 17.8 µg/mL (≈ 29 µM); in data set [2], > 200 µg/mL; with Aerobacter Aerogenes, 43.5 µg/mL (≈ 70.9 µM); in the data set on Shigella sp. it was 26.5 µg/mL (≈ 43.2 µM); in the data set on Pseudomonas Aeruginosa, > 200 µg/mL. In addition, the MIC was 28 µg/mL (≈ 45.6 µM) in the data set with Escherichia coli; 13 µg/mL (≈ 21.2 µM) in data set [3] (setting [7]); 32.2 µg/mL (≈ 52.5 µM) in the data set with Klebsiella pneumoniae; 15 µg/mL (≈ 24.4 µM) in data set [4] (setting [10]); > 200 µg/mL in the data set on Serratia marcescens.
On to `Cn1nnnc1SCC1=C(C(=O)O)N2C(=O)C(NC(=O)[C@H](NC(=O)c3cc(O)cc(O)c3)c3ccc(O)cc3)C2SC1` (stereo partly drawn) [Example 16, 7-[D-[2-(4-Hydroxyphenyl)-2-[(3,5-dihydroxybenzoyl)-amino]acetyl]amino]-3-[[(1-methyltetrazol-5-yl)thio]-methyl]-3-cephem-4-carboxylic acid], for which the pKa in “Titration (pKa)” (setting [5]) is 5.22; in the data set “Titration (pKa)” (setting [6]), 11.7; in “Titration (pKa)” (setting [8]) it was ≥ 12. The MIC was 2.7 µg/mL (≈ 4.4 µM) in [1] (setting [9]); 8.1 µg/mL (≈ 13.2 µM) in the data set on Salmonella heidelberg; 112 µg/mL (≈ 183 µM) in data set [2]; 22 µg/mL (≈ 35.9 µM) with Aerobacter Aerogenes; 9.8 µg/mL (≈ 16 µM) with Shigella sp.; > 200 µg/mL in the data set on Pseudomonas Aeruginosa. Besides, the MIC in the data set with Escherichia coli is 16.5 µg/mL (≈ 26.9 µM); in data set [3] (setting [7]), 1.9 µg/mL (≈ 3.1 µM); in the data set with Klebsiella pneumoniae, 17.4 µg/mL (≈ 28.4 µM); in data set [4] (setting [10]), 4.5 µg/mL (≈ 7.33 µM); in the data set with Serratia marcescens, > 200 µg/mL.
With `Cn1nnnc1SCC1=C(C(=O)O)N2C(=O)C(NC(=O)[C@H](NC(=O)c3ccc(O)cc3O)c3ccc(O)cc3)C2SC1` (stereo partly drawn) [Example 17, 7-[D-[2-(4-Hydroxyphenyl)-2-[(2,4-dihydroxybenzoyl)-amino]-acetyl]amino]-3-[[(1-methyltetrazol-5-yl)thio]-methyl]-3-cephem-4-carboxylic acid], the pKa in “Titration (pKa)” (setting [5]) worked out at 4.97; in the data set “Titration (pKa)” (setting [6]) it was 9.58; in the data set “Titration (pKa)” (setting [8]), 12.1. Moreover, the MIC in [1] (setting [9]) stood at 2.4 µg/mL (≈ 3.91 µM); in the data set with Salmonella heidelberg, 14 µg/mL (≈ 22.8 µM); in data set [2], 102 µg/mL (≈ 166 µM); in the data set on Aerobacter Aerogenes, 36 µg/mL (≈ 58.7 µM); in the data set with Shigella sp., 9.2 µg/mL (≈ 15 µM); in the data set with Pseudomonas Aeruginosa, 92 µg/mL (≈ 150 µM). Moreover, the MIC in the data set with Escherichia coli was 18 µg/mL (≈ 29.3 µM); in data set [3] (setting [7]) it was 3.5 µg/mL (≈ 5.7 µM); with Klebsiella pneumoniae it was 15.5 µg/mL (≈ 25.3 µM); in data set [4] (Staphylococcus), 4 µg/mL (≈ 6.52 µM); in the data set with Serratia marcescens, > 200 µg/mL.
Regarding `O=C(O)C1=C(Cl)CSC2C(NC(=O)[C@H](NC(=O)c3cccc(O)c3O)c3ccccc3)C(=O)N12` (stereo partly drawn) [Example 18, 7-[D-[2-Phenyl-2-[(2,3-dihydroxybenzoyl)amino]acetyl]-amino]-3-chloro-3-cephem-4-carboxylic acid], the pKa in “Titration (pKa)” (setting [5]) amounted to 4.55; in “Titration (pKa)” (setting [6]), 3.84. The MIC in data set [1] (setting [9]) is 14.2 µg/mL (≈ 28.2 µM); with Salmonella heidelberg, 1 µg/mL (≈ 1.98 µM); in data set [2] it was > 200 µg/mL; with Aerobacter Aerogenes, 50 µg/mL (≈ 99.2 µM); with Shigella sp., 18 µg/mL (≈ 35.7 µM); in the data set with Pseudomonas Aeruginosa, > 200 µg/mL. The MIC was 82 µg/mL (≈ 163 µM) in the data set with Escherichia coli; 21.5 µg/mL (≈ 42.7 µM) in data set [3] (setting [7]); 7 µg/mL (≈ 13.9 µM) in the data set on Klebsiella pneumoniae; 24 µg/mL (≈ 47.6 µM) in data set [4] (setting [10]); > 200 µg/mL in the data set with Serratia marcescens.
For the molecule `CC(=O)OCC1=C(C(=O)O)N2C(=O)C(NC(=O)C(NC(=O)c3cccc(O)c3O)c3ccccc3)C2SC1` [Example 19, 7-[D-[2-Phenyl-2-[(2,3-dihydroxybenzoyl)amino]acetyl]-amino]-3-acetoxymethyl-3-cephem-4-carboxylic acid], the pKa in the data set “Titration (pKa)” (setting [5]) was 5; in the data set “Titration (pKa)” (setting [6]) it was 8.72. Besides, the MIC in data set [1] (setting [9]) is 14.7 µg/mL (≈ 27.1 µM); in the data set on Salmonella heidelberg, 1 µg/mL (≈ 1.85 µM); in [2], > 200 µg/mL; with Aerobacter Aerogenes it was > 200 µg/mL; in the data set with Shigella sp., 50 µg/mL (≈ 92.3 µM); in the data set with Pseudomonas Aeruginosa, 56 µg/mL (≈ 103 µM). Also, the MIC in the data set on Escherichia coli was > 200 µg/mL; in data set [3] (setting [7]) it was 16.2 µg/mL (≈ 29.9 µM); with Klebsiella pneumoniae, 7.4 µg/mL (≈ 13.7 µM); in [4] (setting [10]), 17 µg/mL (≈ 31.4 µM); in the data set on Serratia marcescens, > 200 µg/mL.
